US20250353864A1, “INDAZOLE CONTAINING MACROCYCLES AND THEIR USE” (BLOSSOMHILL THERAPEUTICS, INC., priority 2022, published 2025)

How the values were obtained:
Format in all cases: biochemical
EGFR WT = EGFR WT (Homo sapiens (Human), UniProt P00533); test: HotSpot radiometric kinase assay (Reaction Biology), EGFR WT; settings: 10 μM ATP
How it was run: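 IC50 values derive from curve fits of 33P incorporation measured by P81 filter binding. ATP was 10 μM final; incubation lasted 120 min at room temperature after ~20 min compound preincubation.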

EGFR (D770_N771insNPG) = EGFR (D770_N771insNPG) (Homo sapiens (Human), UniProt P00533, INS770NPG); test: HotSpot radiometric kinase assay, EGFR (D770_N771insNPG); settings: 10 μM ATP, read-out: EGFR (Δ770_N771insNPG) IC50
Sequence of EGFR (D770_N771insNPG) (P00533 other isoform, or with tags, fused parts or gaps del 1-668/ins NPG behind 770 limits assumed): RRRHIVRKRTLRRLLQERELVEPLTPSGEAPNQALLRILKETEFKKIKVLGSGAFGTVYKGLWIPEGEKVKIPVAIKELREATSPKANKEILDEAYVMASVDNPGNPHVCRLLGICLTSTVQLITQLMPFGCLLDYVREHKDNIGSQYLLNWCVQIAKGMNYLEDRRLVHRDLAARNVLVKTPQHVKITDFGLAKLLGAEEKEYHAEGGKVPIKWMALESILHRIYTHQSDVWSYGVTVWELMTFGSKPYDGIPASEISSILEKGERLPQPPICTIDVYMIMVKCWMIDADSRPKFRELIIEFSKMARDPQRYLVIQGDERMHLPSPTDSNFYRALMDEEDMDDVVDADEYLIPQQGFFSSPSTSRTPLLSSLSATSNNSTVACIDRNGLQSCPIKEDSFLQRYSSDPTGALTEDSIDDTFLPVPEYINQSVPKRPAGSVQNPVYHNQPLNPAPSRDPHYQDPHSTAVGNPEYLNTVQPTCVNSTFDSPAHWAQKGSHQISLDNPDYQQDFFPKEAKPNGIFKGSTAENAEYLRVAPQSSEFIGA
How it was run: (§1)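 IC50 values come from curve fits of ^33P incorporation captured on P81 filters after acid washing. Kinase reactions ran 120 min at room temperature with 10 μM ATP, added about 20 min after compound. Buffer was Hepes pH 7.5 containing Mg, DTT and 1% DMSO.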

EGFR Δ746-750 mutant = EGFR Δ746-750 mutant (Homo sapiens (Human), UniProt P00533, DEL746-750); test: HotSpot radiometric kinase assay, EGFR Δ746-750 mutant; settings: 10 μM ATP
Sequence of EGFR Δ746-750 mutant (P00533 other isoform, or with tags, fused parts or gaps del 1-668/del 746-750 limits assumed): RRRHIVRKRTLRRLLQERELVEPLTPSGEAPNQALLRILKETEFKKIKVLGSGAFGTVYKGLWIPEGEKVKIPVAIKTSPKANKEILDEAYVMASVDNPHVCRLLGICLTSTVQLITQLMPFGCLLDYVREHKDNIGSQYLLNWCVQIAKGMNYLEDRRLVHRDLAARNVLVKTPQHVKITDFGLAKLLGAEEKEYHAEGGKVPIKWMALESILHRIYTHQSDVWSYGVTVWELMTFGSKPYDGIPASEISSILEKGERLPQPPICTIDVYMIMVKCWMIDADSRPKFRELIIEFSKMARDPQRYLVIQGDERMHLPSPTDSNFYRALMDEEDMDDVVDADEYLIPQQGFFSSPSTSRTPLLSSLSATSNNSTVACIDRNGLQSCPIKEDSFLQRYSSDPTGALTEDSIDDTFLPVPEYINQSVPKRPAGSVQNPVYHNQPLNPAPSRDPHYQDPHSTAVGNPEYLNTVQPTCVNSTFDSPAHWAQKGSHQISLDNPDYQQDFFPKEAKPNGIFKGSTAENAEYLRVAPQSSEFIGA
How it was run: as §1

[1] = target: EGFR Δ746-750/C797S mutant (Homo sapiens (Human), UniProt P00533, C797S/DEL746-750); test: HotSpot radiometric kinase assay, EGFR Δ746-750/C797S mutant; settings: 10 μM ATP
How it was run: as §1

EGFR L858R mutant = EGFR L858R mutant (Homo sapiens (Human), UniProt P00533, L858R); test: HotSpot radiometric kinase assay, EGFR L858R mutant; settings: 10 μM ATP
Sequence of EGFR L858R mutant (P00533 25-1210 L858R): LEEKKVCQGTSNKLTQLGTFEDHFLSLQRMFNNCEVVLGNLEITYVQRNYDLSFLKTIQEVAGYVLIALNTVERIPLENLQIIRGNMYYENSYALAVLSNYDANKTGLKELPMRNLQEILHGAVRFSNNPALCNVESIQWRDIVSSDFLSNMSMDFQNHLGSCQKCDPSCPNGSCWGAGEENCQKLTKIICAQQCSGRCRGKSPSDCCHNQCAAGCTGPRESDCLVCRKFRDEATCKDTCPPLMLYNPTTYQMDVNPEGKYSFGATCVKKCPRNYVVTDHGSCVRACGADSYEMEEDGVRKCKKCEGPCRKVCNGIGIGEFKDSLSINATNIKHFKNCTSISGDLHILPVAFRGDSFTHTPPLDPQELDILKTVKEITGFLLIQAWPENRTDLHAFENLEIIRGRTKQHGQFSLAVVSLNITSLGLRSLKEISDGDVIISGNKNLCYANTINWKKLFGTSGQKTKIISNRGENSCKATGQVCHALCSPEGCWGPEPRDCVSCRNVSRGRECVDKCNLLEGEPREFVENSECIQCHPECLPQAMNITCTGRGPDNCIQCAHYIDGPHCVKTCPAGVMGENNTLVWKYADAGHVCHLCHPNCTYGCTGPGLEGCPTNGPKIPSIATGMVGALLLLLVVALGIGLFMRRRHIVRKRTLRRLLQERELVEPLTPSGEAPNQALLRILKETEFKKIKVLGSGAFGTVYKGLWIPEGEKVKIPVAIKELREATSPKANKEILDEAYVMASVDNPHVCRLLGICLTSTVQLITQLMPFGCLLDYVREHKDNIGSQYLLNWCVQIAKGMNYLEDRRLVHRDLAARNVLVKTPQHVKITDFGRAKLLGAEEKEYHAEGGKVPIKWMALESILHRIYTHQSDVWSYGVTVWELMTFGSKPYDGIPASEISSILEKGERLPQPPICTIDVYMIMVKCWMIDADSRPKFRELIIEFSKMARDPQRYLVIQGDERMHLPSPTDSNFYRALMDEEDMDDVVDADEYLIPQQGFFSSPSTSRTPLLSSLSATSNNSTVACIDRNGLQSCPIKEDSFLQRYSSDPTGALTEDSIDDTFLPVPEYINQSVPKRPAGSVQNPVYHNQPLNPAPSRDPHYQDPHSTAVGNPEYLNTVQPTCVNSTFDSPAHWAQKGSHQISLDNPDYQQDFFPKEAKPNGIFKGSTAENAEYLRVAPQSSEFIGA
How it was run: as §1

EGFR L858R/T790M mutant = EGFR L858R/T790M mutant (Homo sapiens (Human), UniProt P00533, L858R/T790M); test: HotSpot radiometric kinase assay, EGFR L858R/T790M mutant; settings: 10 μM ATP
Sequence of EGFR L858R/T790M mutant (P00533 25-1210 T790M/L858R): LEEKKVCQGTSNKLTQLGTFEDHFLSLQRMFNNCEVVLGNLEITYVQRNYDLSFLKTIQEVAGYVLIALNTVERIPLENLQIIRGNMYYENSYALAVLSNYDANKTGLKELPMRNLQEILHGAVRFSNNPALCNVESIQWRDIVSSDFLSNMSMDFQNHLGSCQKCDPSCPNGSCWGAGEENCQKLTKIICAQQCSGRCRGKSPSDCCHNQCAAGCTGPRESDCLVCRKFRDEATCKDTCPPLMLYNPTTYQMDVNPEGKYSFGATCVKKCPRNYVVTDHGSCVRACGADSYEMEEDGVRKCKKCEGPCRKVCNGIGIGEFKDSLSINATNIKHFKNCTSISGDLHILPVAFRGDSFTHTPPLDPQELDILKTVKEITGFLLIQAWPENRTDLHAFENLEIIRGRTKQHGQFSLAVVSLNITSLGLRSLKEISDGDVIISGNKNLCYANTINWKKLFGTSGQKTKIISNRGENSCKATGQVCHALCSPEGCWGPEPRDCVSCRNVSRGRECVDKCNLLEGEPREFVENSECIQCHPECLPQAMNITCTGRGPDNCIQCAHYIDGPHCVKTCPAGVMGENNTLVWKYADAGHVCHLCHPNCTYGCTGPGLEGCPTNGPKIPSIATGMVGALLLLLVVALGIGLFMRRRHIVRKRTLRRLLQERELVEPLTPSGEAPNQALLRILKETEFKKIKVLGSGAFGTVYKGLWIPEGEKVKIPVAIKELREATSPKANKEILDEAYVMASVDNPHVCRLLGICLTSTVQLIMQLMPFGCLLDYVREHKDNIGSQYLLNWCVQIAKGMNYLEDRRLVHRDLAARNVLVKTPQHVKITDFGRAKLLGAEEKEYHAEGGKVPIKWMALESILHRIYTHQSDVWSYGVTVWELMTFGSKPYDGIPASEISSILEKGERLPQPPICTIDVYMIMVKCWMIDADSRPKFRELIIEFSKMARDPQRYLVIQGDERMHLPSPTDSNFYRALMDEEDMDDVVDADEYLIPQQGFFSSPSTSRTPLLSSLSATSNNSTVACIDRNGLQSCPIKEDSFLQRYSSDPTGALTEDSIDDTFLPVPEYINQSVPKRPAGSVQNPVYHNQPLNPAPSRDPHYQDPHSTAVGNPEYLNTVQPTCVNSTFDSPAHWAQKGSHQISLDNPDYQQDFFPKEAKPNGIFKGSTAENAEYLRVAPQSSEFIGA
How it was run: as §1

[2] = target: EGFR L858R/T790M/C797S mutant (Homo sapiens (Human), UniProt P00533, C797S/L858R/T790M); test: HotSpot radiometric kinase assay, EGFR L858R/T790M/C797S mutant; settings: 10 μM ATP
Sequence of EGFR L858R/T790M/C797S mutant (P00533 25-1210 T790M/C797S/L858R): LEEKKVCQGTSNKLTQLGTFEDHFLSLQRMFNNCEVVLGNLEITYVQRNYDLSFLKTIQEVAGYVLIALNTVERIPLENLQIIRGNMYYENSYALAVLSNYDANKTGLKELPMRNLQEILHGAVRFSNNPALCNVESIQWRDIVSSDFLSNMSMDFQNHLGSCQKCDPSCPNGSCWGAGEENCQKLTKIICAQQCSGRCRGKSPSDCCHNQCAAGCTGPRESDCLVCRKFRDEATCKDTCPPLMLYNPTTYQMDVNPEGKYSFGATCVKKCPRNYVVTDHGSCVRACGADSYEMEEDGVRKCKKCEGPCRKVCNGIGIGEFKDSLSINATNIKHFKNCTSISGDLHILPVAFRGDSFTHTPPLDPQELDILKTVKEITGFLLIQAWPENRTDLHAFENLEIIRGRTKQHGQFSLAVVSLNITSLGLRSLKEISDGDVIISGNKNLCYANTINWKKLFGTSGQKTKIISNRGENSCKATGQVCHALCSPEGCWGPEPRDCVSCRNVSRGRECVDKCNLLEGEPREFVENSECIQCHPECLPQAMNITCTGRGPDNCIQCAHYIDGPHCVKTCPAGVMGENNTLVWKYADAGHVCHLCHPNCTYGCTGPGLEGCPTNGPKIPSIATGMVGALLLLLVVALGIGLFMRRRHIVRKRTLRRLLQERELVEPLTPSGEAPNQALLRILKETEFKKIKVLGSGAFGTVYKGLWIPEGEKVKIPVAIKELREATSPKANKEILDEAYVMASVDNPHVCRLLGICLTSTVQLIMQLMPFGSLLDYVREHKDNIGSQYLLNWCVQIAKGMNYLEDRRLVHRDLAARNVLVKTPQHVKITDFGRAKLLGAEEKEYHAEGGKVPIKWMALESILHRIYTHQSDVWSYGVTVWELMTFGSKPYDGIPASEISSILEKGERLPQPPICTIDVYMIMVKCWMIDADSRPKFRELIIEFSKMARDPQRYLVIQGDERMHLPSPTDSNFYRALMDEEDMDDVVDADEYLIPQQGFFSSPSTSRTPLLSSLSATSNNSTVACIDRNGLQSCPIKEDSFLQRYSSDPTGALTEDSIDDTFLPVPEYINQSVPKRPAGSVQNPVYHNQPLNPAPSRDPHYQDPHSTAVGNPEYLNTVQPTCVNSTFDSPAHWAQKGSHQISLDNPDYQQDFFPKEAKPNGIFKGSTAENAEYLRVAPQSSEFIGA
How it was run: as §1

IC50 (EGFR WT) | IC50 (EGFR (D770_N771insNPG)) | IC50 (EGFR Δ746-750 mutant) | IC50 [1] | IC50 (EGFR L858R mutant) | IC50 (EGFR L858R/T790M mutant) | IC50 [2] | SMILES
290 nM | 250 nM | 198 nM | 91 nM | 87.7 nM | 10.4 nM | 19.2 nM | Cc1nn(CCN2CCCC2)c2c1/C=C/c1n[nH]c3ccc(cc13)-c1cnn(C)c1C(C)OCCO2 (stereo not drawn) [Example 100, (17E)-8,9,16-trimethyl-14-[2-(pyrrolidin-1-yl)ethyl]-2,8,9,11,12,14-hexahydro-3,5-etheno[1,4]dioxacyclopentadecino[11,10-c:15,14-c′:6,7-c″]tripyrazole]
> 1000 nM | > 1000 nM | > 1000 nM | > 1000 nM | > 1000 nM | > 1000 nM | > 1000 nM | Cc1c2c(nn1[C@H]1CCOC[C@@H]1O)OCCCOc1c(cnn1C)-c1ccc3[nH]nc(c3c1)/C=C/2 (racemic) [Example 87, (rac)-1,5-anhydro-2,3-dideoxy-3-[(17E)-8,16-dimethyl-2,8,11,12-tetrahydro-10H,15H-3,5-etheno[1,5]dioxacyclopentadecino[10,11-c:15,14-c′:6,7-c″ ]tripyrazol-15-yl]-L-threo-pentitol]
62.1 nM | 527 nM | 18.3 nM | 9.44 nM | 30.5 nM | 36.4 nM | 8.44 nM | CCOc1nn(CCO)c2c1/C=C/c1n[nH]c3cc(F)c(cc13)-c1c(C)nn(C)c1O[C@@H](C)CN(C(C)C)C2 [Example 239, 2-[(10S,17E)-16-ethoxy-19-fluoro-6,8,10-trimethyl-12-(propan-2-yl)-2,8,10,11,12,13-hexahydro-14H-3,5-ethenotripyrazolo[3,4-f:3′,4′-j:4″,3″-n][1,4]oxazacyclopentadecin-14-yl]ethan-1-ol]
112 nM | 94.5 nM | 61.5 nM | 86.4 nM | 20.7 nM | 0.58 nM | 0.62 nM | Cc1nn(CCO)c2c1/C=C/c1n[nH]c3ccc(cc13)-c1cnn(C)c1OC(C1CCC1)CN(C)C2 (stereo not drawn) [Example 152, 2-[(17E)-10-cyclobutyl-8,12,16-trimethyl-2,8,10,11,12,13-hexahydro-14H-3,5-ethenotripyrazolo[3,4-f:3′,4′-j:4″,3″-n][1,4]oxazacyclopentadecin-14-yl]ethan-1-ol]
> 1000 nM | > 1000 nM | 68.4 nM | 177 nM | 848 nM | 251 nM | 259 nM | Cn1ncc2c1COCCOc1ccccc1/C=C/c1n[nH]c3ccc-2cc13 [Ex. 1, (11E)-1-methyl-1,18,19,21-tetrahydro-8H-10,7,4-(ethan[1]yl[1,2]diylidene)pyrazolo[3,4-f][1,4,12,13]benzodioxadiazacyclooctadecine]

Second part, the molecule before the results:

SMILES | IC50 (EGFR WT) | IC50 (EGFR (D770_N771insNPG)) | IC50 (EGFR Δ746-750 mutant) | IC50 [1] | IC50 (EGFR L858R mutant) | IC50 (EGFR L858R/T790M mutant) | IC50 [2]
Cc1nn([C@H]2C[C@@H](NCCN(C)C)C2)c2c1/C=C/c1n[nH]c3ccc(cc13)-c1cnn(C)c1OCCCO2 [Example 108, N^2-{(1s,3s)-3-[(17E)-8,16-dimethyl-2,8,11,12-tetrahydro-10H,14H-3,5-etheno[1,5]dioxacyclopentadecino[10,11-c:15,14-c′:6,7-c″]tripyrazol-14-yl]cyclobutyl}-N^1,N^1-dimethylethane-1,2-diamine] | 101 nM | 103 nM | 30.9 nM | 49.2 nM | 26.2 nM | 3.86 nM | 11.9 nM
Cc1nn([C@H]2CN(C)C[C@@H]2O)c2c1/C=C/c1n[nH]c3ccc(cc13)-c1cnn(C)c1CN(C)CCO2 (racemic) [Example 98, (rac)-(3S,4S)-1-methyl-4-[(17E)-8,10,16-trimethyl-2,8,9,10,11,12-hexahydro-14H-3,5-ethenotripyrazolo[3,4-f:4′,3′-j:4″,3″-n][1,4]oxazacyclopentadecin-14-yl]pyrrolidin-3-ol] | 119 nM | 148 nM | 84.9 nM | 27 nM | 41.1 nM | 3.56 nM | 12.1 nM
CCc1nn(CCO)c2c1/C=C/c1n[nH]c3ccc(cc13)-c1cnn(C)c1OCCCO2 [Ex. 23, 2-[(17E)-16-ethyl-8-methyl-2,8,11,12-tetrahydro-10H,14H-3,5-etheno[1,5]dioxacyclopentadecino[10,11-c:15,14-c′:6,7-c″]tripyrazol-14-yl]ethan-1-ol] | 290 nM | 362 nM | 29.3 nM | 44.5 nM | 96.6 nM | 13.1 nM | 22.5 nM
CCc1nn(CCO)c2c1/C=C/c1n[nH]c3ccc(cc13)-c1cnn(C)c1O[C@@H](C)CN(C)C2 [Example 129, 2-[(10S,17E)-16-ethyl-8,10,12-trimethyl-2,8,10,11,12,13-hexahydro-14H-3,5-ethenotripyrazolo[3,4-f:3′,4′-j:4″,3″-n][1,4]oxazacyclopentadecin-14-yl]ethan-1-ol] | 3.02 nM | 6.5 nM | 0.58 nM | 0.4 nM | 0.47 nM | 0.09 nM | 0.33 nM
Cn1ncc2c1OCCN1CC[C@@H](Oc3ccc(C(C)(C)O)cc3/C=C/c3n[nH]c4ccc-2cc34)C1=O [Example 135, (10R,16E)-14-(2-hydroxypropan-2-yl)-3-methyl-3,5,6,9,10,19-hexahydro-8H-20,22-etheno-7,10-methanodipyrazolo[3,4-i:4′,3′-m][1,8,5]benzodioxazacyclooctadecin-25-one] | 829 nM | 802 nM | 48.3 nM | 97.7 nM | 128 nM | 20 nM | 38.6 nM
CCOC(=O)Cn1nc(OCC)c2c1CN(CC)C[C@H](C)Oc1c(cnn1C)-c1ccc3[nH]nc(c3c1)/C=C/2 [Example 218, ethyl [(10S,17E)-16-ethoxy-12-ethyl-8,10-dimethyl-2,8,10,11,12,13-hexahydro-14H-3,5-ethenotripyrazolo[3,4-f:3′,4′-j:4″,3″-n][1,4]oxazacyclopentadecin-14-yl]acetate] | 119 nM | 161 nM | 8.48 nM | 16.6 nM | 28.8 nM | 1.99 nM | 2.04 nM
Cc1c2c(nn1CCO)OCCOC(C)c1c(cnn1C)-c1ccc3[nH]nc(c3c1)/C=C/2 (stereo not drawn) [Example 79, 2-[(17E)-8,9,16-trimethyl-8,9,11,12-tetrahydro-3,5-etheno[1,4]dioxacyclopentadecino[11,10-c:15,14-c′:6,7-c″ ]tripyrazol-15(2H)-yl]ethan-1-ol] | 1910 nM | 951 nM | 596 nM | 284 nM | 526 nM | 57.1 nM | 67.7 nM
CCOc1nn(CCO)c2c1/C=C/c1n[nH]c3ccc(cc13)-c1cnn(C)c1O[C@H](C)CN(C(C)=O)C2 [Example 217, 1-[(10R,17E)-16-ethoxy-14-(2-hydroxyethyl)-8,10-dimethyl-2,8,10,11,13,14-hexahydro-12H-3,5-ethenotripyrazolo[3,4-f:3′,4′-j:4″,3″-n][1,4]oxazacyclopentadecin-12-yl]ethan-1-one] | 71.7 nM | 107 nM | 3.61 nM | 1.94 nM | 37.1 nM | 0.69 nM | 1.42 nM
CN(C)Cc1ccc2c(c1)O[C@@H]1CCN(CCOc3c(cnn3C)-c3ccc4[nH]nc(c4c3)/C=C/2)C1=O [Example 94, (10R,16E)-13-[(dimethylamino)methyl]-3-methyl-3,5,6,9,10,19-hexahydro-8H-20,22-etheno-7,10-methanodipyrazolo[3,4-i:4′,3′-m][1,8,5]benzodioxazacyclooctadecin-25-one] | 44.1 nM | 17.2 nM | 17.6 nM | 14.1 nM | 9.99 nM | 0.82 nM | 5.75 nM
Cc1c2c(nn1CCO)CN(C)C[C@H](C)Oc1c(cnn1C)-c1ccc3[nH]nc(c3c1)/C=C/2 [Example 60, 2-[(10S,17E)-8,10,12,16-tetramethyl-2,8,10,11,12,13-hexahydro-15H-3,5-ethenotripyrazolo[3,4-f:3′,4′-j:4″,3″- n][1,4]oxazacyclopentadecin-15-yl]ethan-1-ol] | 581 nM | 678 nM | 89.7 nM | 89.4 nM | 101 nM | 6.86 nM | 3.27 nM
